Reference: patent US7371739B2, “Aryl fructose-1,6-bisphosphatase inhibitors” (Metabasis Therapeutics, Inc., priority 2000, dated 2008)

What follows are compounds tested against T1, human liver FBPase (Homo sapiens, UniProt P09467) (assay: Inhibition of Human Liver FBPase). Details: not given.
T1 sequence (P09467 2-338 limits assumed): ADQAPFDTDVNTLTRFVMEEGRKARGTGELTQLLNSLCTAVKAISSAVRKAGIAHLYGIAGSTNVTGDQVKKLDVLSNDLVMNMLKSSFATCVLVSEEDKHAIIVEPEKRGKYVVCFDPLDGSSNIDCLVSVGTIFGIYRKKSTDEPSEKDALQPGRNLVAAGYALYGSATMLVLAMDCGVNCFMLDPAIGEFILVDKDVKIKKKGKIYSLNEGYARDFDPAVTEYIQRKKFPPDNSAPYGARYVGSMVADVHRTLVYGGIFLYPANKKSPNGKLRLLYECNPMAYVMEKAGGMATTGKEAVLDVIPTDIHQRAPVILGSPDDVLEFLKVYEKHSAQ
Work on `O=[N+]([O-])c1cc(-c2ccc(P(=O)(O)O)o2)cc([N+](=O)[O-])c1` [Compound 1.01, 5-(3,5-Dinitrophenyl)-2-furanphosphonic Acid] yielded an IC50 of 0.31 µM. In the case of `Nc1c(-c2ccc(P(=O)(O)O)o2)cc([N+](=O)[O-])cc1[N+](=O)[O-]` [Compound 1.02], the IC50 is reported as 1.8 µM. `COc1ccc(Cl)cc1-c1ccc(P(=O)(O)O)o1` [Compound 1.03] showed an IC50 of 0.5 µM. In the case of `O=P(O)(O)c1ccc(-c2ccc(F)cc2)o1` [Compound 2.01, 5-(4-Fluorophenyl)-2-furanphosphonic Acid], the IC50 is reported as 2.2 µM. `O=P(O)(O)c1ccc(-c2ccc(Cl)cc2Cl)o1` [Compound 2.02] gave an IC50 of 3 µM. `Nc1cc(-c2ccc(P(=O)(O)O)o2)ccc1Br` [Compound 3.01, 5-(4-Bromo-3-aminophenyl)-2-furanphosphonic Acid] showed an IC50 of 5.5 µM. In the case of `COc1ccc(CNc2ccccc2)cc1-c1ccc(P(=O)(O)O)o1` [Compound 4.46], the IC50 is reported as 3 µM. `COc1ccc(CNc2ccc(O)cc2)cc1-c1ccc(P(=O)(O)O)o1` [Compound 4.48] gave an IC50 of 0.14 µM. `COc1ccc(CNc2ccc(N)cc2)cc1-c1ccc(P(=O)(O)O)o1` [Compound 4.49] showed an IC50 of 0.32 µM. `COc1ccc(CNc2ccc(NC(C)=O)cc2)cc1-c1ccc(P(=O)(O)O)o1` [Compound 4.50] showed an IC50 of 6.5 µM. `COc1ccc(CN(C(C)=O)c2ccc(N)cc2)cc1-c1ccc(P(=O)(O)O)o1` [Compound 4.51] showed an IC50 of 12 µM. With `O=C(NCP(=O)(O)O)c1ccc(Br)o1` [Compound 8.01, N-(Phosphonomethyl)-5-bromofuran-2-carboxamide] the IC50 was 4 µM. `O=C(NCP(=O)(O)O)c1cc([N+](=O)[O-])cc([N+](=O)[O-])c1` [Compound 8.14] was tested, and the IC50 was 4 µM. In the case of `COc1cc(Cl)ccc1C(=O)OCP(=O)(O)O` [Compound 11.01, Phosphonomethyl 4-Chloro-2-methoxybenzoate], the IC50 is reported as 2.8 µM. `O=C(OCP(=O)(O)O)c1ccc(Br)o1` [Compound 11.02] showed an IC50 of 6.4 µM. `COc1c(Br)cccc1C(=O)OCP(=O)(O)O` [Compound 12.01, Phosphonomethyl 3-Bromo-2-methoxybenzoate] showed an IC50 of 4.2 µM. `COc1cc(COCP(=O)(O)O)ccc1Br` [Compound 13.01, 4-Bromo-3-methoxyphenylmethoxymethylphosphonic acid] showed an IC50 of 11 µM. `O=[N+]([O-])c1cc(COCP(=O)(O)O)cc([N+](=O)[O-])c1` [Compound 13.02] gave an IC50 of 9 µM. In the case of `O=P(O)(O)C#Cc1ccccc1` [Compound 16.01, 1-Phosphono-2-phenylacetylene], the IC50 is reported as 89 µM.

Same assay, conditions: read-out: IC50 for AMP, human liver FBPase; text value for reference AMP
Compound `Nc1ncnc2c1ncn2[C@@H]1O[C@H](COP(=O)(O)O)[C@@H](O)[C@H]1O` [AMP, reference compound] has an IC50 of 1 µM.

The compounds below were run on human liver microsomes (P450 isozymes CYP3A4, CYP1A2, CYP2C9) (assay: Identification of the P450 Isozyme Involved in the Activation). Details: 0-100 μM P450 isozyme inhibitor.
Type: in vitro ADME
Method: Prodrugs are evaluated for human microsome-catalyzed conversion to parent compound in the absence and presence of specific inhibitors of three major P450 isozymes: ketoconazole (CYP3A4), furafylline (CYP1A2), and sulfaphenazole (CYP2C9).
Methods: Reaction (0.5 ml@37° C.) consist of 0.2 M KH2PO4, 13 mM glucose-6-phosphate, 2.2 mM NADP^+, 1 unit of glucose-6-phosphate dehydrogenase, 0-2.5 mg/ml human microsomal protein (In Vitro Technologies, In.), […], and 0-100 μM P450 isozyme inhibitor. Reactions are stopped by addition of methanol to a concentration of 60%, filtered ([…]), and lyophilized. Samples are resuspended in HPLC buffer (10 mM phosphate pH 5.5, 2.5 mM octyl-triethylammonium), loaded onto a YMC C8 HPLC column (250×4.6 mm), and eluted with a methanol gradient to 80%. Formuation of parent drug is confirmed by co-elution with an authentic parent drug standard.
Results: Prodrug is converted readily to parent drug in human liver microsomes.
In the case of `CC(=O)N1CCN(c2ccc(OCC3COC(Cn4ccnc4)(c4ccc(Cl)cc4Cl)O3)cc2)CC1` (stereo not drawn) [Ketoconazole], the “inhibition of formation of parent drug from prodrug by P450 isozyme inhibitor” value (shortened to “inhibition of formation of parent drug”) is reported as “inhibit the formation of parent drugs in a dose-dependent fashion”. For `Cc1nc2c([nH]1)c(=O)n(C)c(=O)n2Cc1ccco1` [fusafylline], the “inhibition of formation of parent drug” value was “no significant inhibition”. With `Nc1ccc(S(=O)(=O)Nc2ccnn2-c2ccccc2)cc1` [sulfaphenazole] the “inhibition of formation of parent drug” value was “no significant inhibition”.

What follows are compounds tested against T2, rat liver FBPase (Rattus norvegicus, UniProt P19112) (assay: Inhibition of Rat Liver FBPase). Details: assay identical to human liver FBPase; read-out: IC50 for AMP, rat liver FBPase.
T2 construct: made in house; host or cells: E. coli BL21
T2 sequence (P19112 2-363 limits assumed): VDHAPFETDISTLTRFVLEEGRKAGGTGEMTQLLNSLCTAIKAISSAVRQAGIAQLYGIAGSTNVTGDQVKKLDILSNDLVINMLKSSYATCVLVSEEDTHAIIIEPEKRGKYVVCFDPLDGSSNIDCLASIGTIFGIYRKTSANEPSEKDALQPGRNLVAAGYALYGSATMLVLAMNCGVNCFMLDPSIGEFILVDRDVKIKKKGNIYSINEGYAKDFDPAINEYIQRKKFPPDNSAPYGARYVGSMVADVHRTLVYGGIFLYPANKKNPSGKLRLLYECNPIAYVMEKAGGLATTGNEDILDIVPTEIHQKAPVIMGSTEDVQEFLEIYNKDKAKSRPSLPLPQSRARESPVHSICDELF
Type: biochemical
Method: Recombinant FBPase is purified as described (El-Maghrabi, M. R., and Pilkis, S. J. (1991) Biochem. Biophys. Res. Commun. 176, 137-144) The enzyme assay is identical to that described above for human liver FBPase. The IC50 for AMP is 20 μM.
In the case of `Nc1ncnc2c1ncn2[C@@H]1O[C@H](COP(=O)(O)O)[C@@H](O)[C@H]1O` [AMP, reference compound], the IC50 is reported as 20 µM.
